Like-named read-outs stand apart in the source and are kept apart here.
How the values were obtained:
[1] = tested on: SARS-CoV-2; experiment: SARS-CoV-2 cytopathic effect in Vero E6 cells (CellTiter-Glo); assay type: cell-based; settings: Severe acute respiratory syndrome coronavirus 2, Vero C1008, 72 h, 3 days post infection, two experiments with two replicates each, read-out: IC50 viral-induced cytopathic effect (mean and standard deviation)
Procedure: Vero E6 cells (ATCC CRL-1586) were cultured in Dulbecco’s modified Eagle medium, (DMEM; Lonza) supplemented with 5% fetal calf serum (FCS; EuroClone), 100 U/mL penicillin, 100 µg/mL streptomycin, and 2 mM glutamine (all ThermoFisher Scientific).
Plitidepsin was used at a concentration ranging from 100 µM to 0.0512 nM at ⅕ serial dilutions, and also assayed from 10 µM to 0.5 nM at ⅓ dilutions.
Increasing concentrations of Plitidepsin was added to Vero E6 cells together with 10^1.8 TCID50/mL of SARS-CoV-2, a concentration that achieves a 50% of cytopathic effect. Non-exposed cells were used as negative controls of infection. In order to detect any drug-associated cytotoxic effect, Vero E6 cells were equally cultured in the presence of increasing drug concentrations, but in the absence of virus. Cytopathic or cytotoxic effects of the virus or drugs were measured at 3 days post infection, using the CellTiter-Glo luminescent cell viability assay (Promega). Luminescence was measured in a Fluoroskan Ascent FL luminometer (ThermoFisher Scientific).
Response curves were adjusted to a non-linear fit regression model, calculated with a four-parameter logistic curve with variable slope. […] Statistical differences from 100% were assessed with a one sample t test. […]

[2] = tested on: WNV-GFP (lineage 2; molecular clone WN956)
[3] = tested on: WNV-NY99 (lineage 1); assay type: cell-based, West Nile virus; settings: for Intracellular WNV RNA load (RT-qPCR): Vero-E6 cells
[4] = tested on: NF-κB; experiment: NF-κB transactivation luciferase assay in THP-1 NF-κB-Luc cells; assay type: cell-based, human; settings: 100 nM plitidepsin, 6 hours; with poly I:C, LPS-B5 or Resiquimod (TLR ligands)
Procedure: Luminescence was measured in a Perkin-Elmer EnVision reader.

[5] = tested on: SARS-CoV-2; experiment: SARS-CoV-2 dose-response curve analysis by immunofluorescence in Vero cells
[6] = tested on: SARS-CoV-2; experiment: SARS-CoV-2 replication in human stem cell-derived pneumocyte like cells; assay type: cell-based; settings: 10 nm plitidepsin for 1 hour before infection; 48 hour incubation
Procedure: Several in vitro experiments aimed at determining the effect of plitidepsin on SARS-CoV-2 were carried out and are disclosed herein. […] In another study, human stem cell-derived pneumocyte like cells were prophylactically exposed to 10 nm plitidepsin for 1 hour and then infected with SARS-CoV-2 (4 × 10^4 plaque forming units). After a 48 hour incubation period, both antiviral and cytotoxic plitidepsin effects were determined.

[7] = tested on: alveolar macrophages; experiment: LPS animal inflammation model: macrophages in bronchoalveolar lavage by flow cytometry; assay type: in vivo, mouse; settings: mice 1 mg/kg single i.v., LPS 20 µg/kg i.p.
Text: Three hours later, bronchoalveolar lavages were collected.

[8] = Pharmacokinetics in patients; assay type: in vivo; settings: both sexes, plasma, Human (M/F), 0.135 mg/kg (Recommended Dose 5 mg/m2), 3-h intravenous infusion
[9] = target: eEF1A purified from rabbit muscle (Oryctolagus cuniculus, UniProt Q71V39); experiment: Binding of 14C-plitidepsin to purified eEF1A
Sequence of eEF1A purified from rabbit muscle (Q71V39 whole entry): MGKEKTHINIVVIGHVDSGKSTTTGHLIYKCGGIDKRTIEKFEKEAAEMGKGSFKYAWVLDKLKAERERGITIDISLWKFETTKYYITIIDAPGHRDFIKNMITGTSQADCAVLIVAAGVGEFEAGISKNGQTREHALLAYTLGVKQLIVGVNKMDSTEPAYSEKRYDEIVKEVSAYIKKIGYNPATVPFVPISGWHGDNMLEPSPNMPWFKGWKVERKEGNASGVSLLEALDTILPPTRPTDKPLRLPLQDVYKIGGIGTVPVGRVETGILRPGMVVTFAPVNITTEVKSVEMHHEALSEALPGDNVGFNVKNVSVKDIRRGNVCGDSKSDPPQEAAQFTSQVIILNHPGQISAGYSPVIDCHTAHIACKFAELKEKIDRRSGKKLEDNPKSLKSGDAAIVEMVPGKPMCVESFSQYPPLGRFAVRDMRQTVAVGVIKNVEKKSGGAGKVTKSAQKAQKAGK

[10] = tested on: WNV-NY99 (lineage 1); settings: Huh-7 cells
[11] = Stability of plitidepsin drug product and reconstituted solution; assay type: physicochemical
Procedure: Plitidepsin will be labelled with the study protocol code, the batch number, the content, the expiry date, the storage conditions, the name of the investigator and the sponsor. The study drug will be labelled in accordance with Annex 13 of the European Good Manufacturing Practices. Plitidepsin should be stored between 2° C. and 8° C. and the vials should be kept in the outer carton to protect them from light. The drug in these conditions is stable for 60 months.
After reconstitution of the 2 mg plitidepsin vial with 4 ml of the solution for reconstitution of macrogolglycerol ricinoleate/ethanol/water for injection, the reconstituted solution should be diluted and used immediately after preparation. If not used immediately, storage times and conditions until use are the responsibility of the user. […] If storage is required before administration, solutions should be stored refrigerated and protected from light and should be used within 24 hours after reconstitution.

[12] = Cell biomass (DAPI) in Vero-E6 cells; assay type: cell-based, African green monkey; settings: African green monkey, Vero-E6 cells, VeroE6 cells, read-out: CC50 based on cell biomass
Procedure: (§1) Relative infection efficiency was assessed by automated fluorescence microscopy in the green channel and overall cell biomass/well was estimated by nuclear staining with DAPI in the blue channel, as a preliminary assessment of the compound effective doses as well as overall compound cytotoxicity.
(§2) Cells were fixed by addition of a 5X formaldehyde solution to achieve a 4% final concentration for 30 mins at room temperature. Cells were washed with PBS and stained with DAPI (4′,6-diamidino-2-phenylindole) following manufacturer’s recommendations. Relative infection efficiency was estimated by image analysis in an automated microscopy device (Tecan Spark Cyto). Uninfected cells and vehicle-treated controls were included in each plate.

[13] = tested on: Vero-E6 cells; experiment: Cell biomass (DAPI) in Vero-E6 cells; assay type: cell-based, African green monkey; settings: VeroE6 cells, 48 hours
Procedure: as §1, §2

[14] = tested on: SARS-CoV-2; experiment: APLICOV-PC clinical study in patients hospitalised for COVID-19: efficacy; assay type: in vivo, human

Compound: CC[C@H](C)[C@H]1NC(=O)[C@@H](NC(=O)[C@@H](CC(C)C)N(C)C(=O)[C@@H]2CCCN2C(=O)C(C)=O)[C@@H](C)OC(=O)[C@H](Cc2ccc(OC)cc2)N(C)C(=O)[C@@H]2CCCN2C(=O)[C@H](CC(C)C)NC(=O)[C@@H](C)C(=O)[C@H](C(C)C)OC(=O)C[C@@H]1O [plitidepsin]
- IC50 [1]: 60 ± 20 nM
- Concentration with antiviral activity in the absence of measurable interference with cell viability (p<0.05) ([2]; Vero-E6 cells): 7.2 nM
- Therapeutic index (CC50/EC50) ([2]; VeroE6 cells): 475
- Concentration reaching background fluorescence levels ([2]; VeroE6 cells, 48 hours): ≥ 36 nM
- Reduction of extracellular infectivity titers ([3]; 45 nM, VeroE6 cells, 48 hours): > 3 orders of magnitude
- Intracellular WNV RNA load (RT-qPCR) ([3]; 5 and 1.5 nM): not distinguishable from those in the control
- Intracellular WNV RNA load (RT-qPCR) ([3]; 15 and 45 nM): significantly decreased in a dose-dependent manner
- NF-κB transactivation (luciferase activity) [4]: clearly inhibited the production of luciferase
- SI [5]: 49.95-129.92
- IC50 ([5]; read-out: IC50 inhibition of virus infection, Vero cells, MOI 0.0125, 24 hpi, three repeats): 3.3 to 3.9 nM
- SARS-CoV-2 replication [6]: completely eliminated replication of SARS-CoV-2
- Macrophages in bronchoalveolar lavage [7]: decrease the percentage of macrophages presents on bronchoalveolar lavage without cytotoxic effects
- AUC(0-inf) [8]: 256 ng·h/mL
- Cmax [8]: 29.1 ng/mL
- clearance [8]: 11.7 to 15 mL/min/kg
- Vd ([8]; read-out: Vdss): 29 to 33 L/kg
- half-life ([8]; read-out: t½): 20 to 80 h
- Binding affinity to eEF1A [9]: high affinity
- Rate of dissociation from eEF1A [9]: low rate of dissociation
- Intracellular WNV RNA load (RT-qPCR) ([10]; 15 nM): marked reduction in viral load
- Total cellular RNA recovery ([10]; 45 nM): no RNA could be recovered
- Reduction of extracellular infectivity titers ([10]; 45 nM, 48 hours): > 3 orders of magnitude
- Physical, chemical and microbiological stability of reconstituted concentrated solution ([11]; original vial under indoor light at room temperature): 6 hours
- Physical, chemical and microbiological stability of reconstituted concentrated solution ([11]; refrigerated conditions (5° C.±3° C.)): 24 hours
- Stability of the drug (vials) ([11]; stored between 2° C. and 8° C., protected from light): 60 months
- CC50 at 48 h [12]: 2330 nM
- Concentration up to which cell number remained unchanged [13]: up to 36 nM
- Mean time from baseline until undetectable viral load [14]: 11 days
- Mortality from Day 1 to Day 7 [14]: 0 n (%)
- Mortality from Day 1 to Day 15 [14]: 0 n (%)
- Mortality from Day 1 to Day 31 [14]: 2 (4.5) n (%)
- Patients requiring ICU admission from Day 1 to Day 7 [14]: 5 (11.4) n (%)
- Patients requiring ICU admission from Day 1 to Day 15 [14]: 6 (13.6) n (%)
- Patients requiring ICU admission from Day 1 to Day 31 [14]: 6 (13.6) n (%)
- Patients requiring invasive mechanical ventilation and/or ICU admission from Day 1 to Day 7 [14]: 5 (11.4) n (%)
- Patients requiring invasive mechanical ventilation and/or ICU admission from Day 1 to Day 15 [14]: 6 (13.6) n (%)
- Patients requiring invasive mechanical ventilation and/or ICU admission from Day 1 to Day 31 [14]: 6 (13.6) n (%)
- Patients requiring noninvasive mechanical ventilation from Day 1 to Day 7 [14]: 4(9.1) n (%)
- Patients requiring noninvasive mechanical ventilation from Day 1 to Day 15 [14]: 5 (11.4) n (%)
- Patients requiring noninvasive mechanical ventilation from Day 1 to Day 31 [14]: 6 (13.6) n (%)
- Mean change in viral load from baseline to Day 4 ([14]; 96 h): -1.90 log10 copies/mL
- Mean change in viral load from baseline to Day 7 ([14]; 168 h): -3.07 log10 copies/mL
- Mean reduction in viral load ([14]; 168 h): -3.1 log10 copies/mL
- Patients requiring oxygen therapy at Day 7 ([14]; 168 h): 31 (70.5) n (%)
- Patients discharged from hospital by Day 8 ([14]; 192 h): 25 (56.8) n (%)
- Mean change in viral load from baseline to Day 15 ([14]; 360 h): -4.48 log10 copies/mL
- Mean reduction in viral load ([14]; 360 h): -4.5 log10 copies/mL
- Patients discharged from hospital by Day 15 ([14]; 360 h): 36 (81.8) n (%)
- Patients requiring oxygen therapy at Day 15 ([14]; 360 h): 9 (20.5) n (%)
- Reduction in viral load ([14]; 360 h): -3.0 log
- Mean change in viral load from baseline to Day 31 ([14]; 744 h): -5.27 log10 copies/mL
- Patients discharged from hospital by Day 31 ([14]; 744 h): 40 (90.9) n (%)
- Patients requiring oxygen therapy at Day 31 ([14]; 744 h): 3 (6.8) n (%)
